Values belong to the molecule of their own block, whether it stands above or below them.
How the values were obtained:
[1] = biological target: Tyrosine-protein kinase BTK (Homo sapiens, UniProt Q06187); assay: Inhibition of BTK (unknown origin)
[2] = biological target: BDNF/NT-3 growth factors receptor (Homo sapiens, UniProt Q16620); assay: Inhibition of TRKB (unknown origin)
[3] = biological target: T1, High affinity nerve growth factor receptor (Homo sapiens, UniProt P04629); assay: Inhibition of recombinant full length human TRKA expressed in U2OS cells using Poly(Glu:Tyr) as substrate after 30 mins by scintillation counting assay
T1 sequence (P04629 whole entry): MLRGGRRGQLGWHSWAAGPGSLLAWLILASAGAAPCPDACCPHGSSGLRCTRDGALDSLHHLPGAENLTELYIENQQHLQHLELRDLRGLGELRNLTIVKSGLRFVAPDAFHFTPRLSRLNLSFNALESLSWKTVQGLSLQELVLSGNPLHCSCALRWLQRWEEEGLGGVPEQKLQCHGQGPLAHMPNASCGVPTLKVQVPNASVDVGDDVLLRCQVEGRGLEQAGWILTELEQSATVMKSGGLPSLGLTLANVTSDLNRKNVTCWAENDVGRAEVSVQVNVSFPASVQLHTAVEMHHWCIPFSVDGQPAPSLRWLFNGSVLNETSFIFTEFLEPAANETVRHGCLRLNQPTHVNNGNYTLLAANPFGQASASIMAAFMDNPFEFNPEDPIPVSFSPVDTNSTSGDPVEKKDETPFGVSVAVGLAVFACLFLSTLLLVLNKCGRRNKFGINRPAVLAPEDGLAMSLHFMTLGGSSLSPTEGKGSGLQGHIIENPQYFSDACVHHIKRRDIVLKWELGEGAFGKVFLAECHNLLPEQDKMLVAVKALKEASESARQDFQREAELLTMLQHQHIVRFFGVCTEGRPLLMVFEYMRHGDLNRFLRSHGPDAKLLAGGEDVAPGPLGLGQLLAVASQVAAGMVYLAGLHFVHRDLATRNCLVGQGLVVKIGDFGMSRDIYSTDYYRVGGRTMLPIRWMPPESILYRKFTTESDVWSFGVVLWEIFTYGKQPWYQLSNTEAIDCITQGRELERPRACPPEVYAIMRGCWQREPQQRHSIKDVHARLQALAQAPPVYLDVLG

[4] = biological target: T1, High affinity nerve growth factor receptor; assay: Inhibition of human TRKA expressed in human AD293 cells assessed as reduction in TrkA phosphorylation at Tyr490 residues preincubated for 20 mins followed by NGF-stimulation measure after 5 mins by ELISA; format: cell-based
[5] = biological target: T1, High affinity nerve growth factor receptor; assay: Inhibition of recombinant N- terminal GST-tagged human NTRK1 expressed in baculovirus infected Sf9 cells using Poly(Glu:Tyr) as substrate after 45 mins
[6] = Inhibition of TRK (unknown origin); design: species or system Homo sapiens
IMR-32 = assay: Antiproliferative activity against human IMR32 cells by sulforhodamine B assay; format: functional, cell-based
[7] = biological target: T1, High affinity nerve growth factor receptor; assay: Inhibition of NTRK1 in human KM12 cells; format: cell-based
K562 = assay: Growth inhibition of human K562 cells; format: functional, cell-based
[8] = biological target: T1, High affinity nerve growth factor receptor; assay: Inhibition TRKA (unknown origin)
KM12 = assay: cells; conditions: Homo sapiens
Description: Growth inhibition of human KM12 cells

[9] = Oral bioavailability in healthy volunteer at 100 mg, twice daily; conditions: human, in vivo
[10] = Half life in healthy volunteer at 100 mg, twice daily; conditions: human, in vivo
[11] = Cmax in cancer patient at 100 mg, twice daily; format: ADME; design: dose 100 mg; conditions: human, in vivo
[12] = Tmax in cancer patient at 100 mg, twice daily; format: ADME; conditions: human, in vivo
[13] = AUC (0 to 24 hrs) in cancer patient at 100 mg, twice daily; format: ADME; design: dose 100 mg, time < 24 hr; conditions: human, in vivo
[14] = Apparent oral clearance in healthy volunteer at 100 mg, twice daily; conditions: human, in vivo
[15] = Volume of distribution at steady state in healthy volunteer at 100 mg, twice daily; conditions: human, in vivo, read-out: Vdss
NTRK1/NTRK2 = NTRK1/NTRK2 (Homo sapiens, UniProt P04629+Q16620); assay: Inhibition of TRKA/TRKB (unknown origin); format: protein assay
[16] = biological target: T1, High affinity nerve growth factor receptor; assay: Inhibition of recombinant His-tagged human TRKA cytoplasmic domain (441 to 796 residues) expressed in baculovirus expression system using biotin labelled TK peptide preincubated for 20 mins followed by substrate addition by HTRF assay
[17] = biological target: T1, High affinity nerve growth factor receptor; assay: Inhibition TRKA (unknown origin) by cell based assay
[18] = biological target: T1, High affinity nerve growth factor receptor; assay: Inhibition of TRKA (unknown origin) using poly GT as substrate preincubated for 30 mins followed by substrate addition measured after 30 mins by TR-FRET Assay

BDNF/NT-3 growth factors receptor, sequence (Q16620 whole entry): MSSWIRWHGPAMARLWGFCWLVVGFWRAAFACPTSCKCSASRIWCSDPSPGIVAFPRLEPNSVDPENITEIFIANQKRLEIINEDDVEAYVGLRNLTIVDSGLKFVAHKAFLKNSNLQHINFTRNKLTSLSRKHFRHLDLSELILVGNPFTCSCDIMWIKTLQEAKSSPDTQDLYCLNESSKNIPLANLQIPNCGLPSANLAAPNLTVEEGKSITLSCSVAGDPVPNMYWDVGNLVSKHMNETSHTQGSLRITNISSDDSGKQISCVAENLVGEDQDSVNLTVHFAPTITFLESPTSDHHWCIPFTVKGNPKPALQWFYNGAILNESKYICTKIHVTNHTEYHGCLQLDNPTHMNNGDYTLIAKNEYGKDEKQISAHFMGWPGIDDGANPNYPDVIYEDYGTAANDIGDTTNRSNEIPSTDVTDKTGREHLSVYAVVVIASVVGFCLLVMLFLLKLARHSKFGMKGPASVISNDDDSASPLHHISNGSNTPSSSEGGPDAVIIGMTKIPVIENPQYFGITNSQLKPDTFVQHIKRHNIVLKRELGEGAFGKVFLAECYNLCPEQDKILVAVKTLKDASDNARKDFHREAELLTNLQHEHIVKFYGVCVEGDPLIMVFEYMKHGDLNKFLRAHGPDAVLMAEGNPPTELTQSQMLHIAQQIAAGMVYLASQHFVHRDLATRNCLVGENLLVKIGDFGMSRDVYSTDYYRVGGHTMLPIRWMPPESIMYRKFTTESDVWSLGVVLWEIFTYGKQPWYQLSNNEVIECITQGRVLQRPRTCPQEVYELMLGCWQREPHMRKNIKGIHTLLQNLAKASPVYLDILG
Tyrosine-protein kinase BTK, sequence (Q06187 whole entry): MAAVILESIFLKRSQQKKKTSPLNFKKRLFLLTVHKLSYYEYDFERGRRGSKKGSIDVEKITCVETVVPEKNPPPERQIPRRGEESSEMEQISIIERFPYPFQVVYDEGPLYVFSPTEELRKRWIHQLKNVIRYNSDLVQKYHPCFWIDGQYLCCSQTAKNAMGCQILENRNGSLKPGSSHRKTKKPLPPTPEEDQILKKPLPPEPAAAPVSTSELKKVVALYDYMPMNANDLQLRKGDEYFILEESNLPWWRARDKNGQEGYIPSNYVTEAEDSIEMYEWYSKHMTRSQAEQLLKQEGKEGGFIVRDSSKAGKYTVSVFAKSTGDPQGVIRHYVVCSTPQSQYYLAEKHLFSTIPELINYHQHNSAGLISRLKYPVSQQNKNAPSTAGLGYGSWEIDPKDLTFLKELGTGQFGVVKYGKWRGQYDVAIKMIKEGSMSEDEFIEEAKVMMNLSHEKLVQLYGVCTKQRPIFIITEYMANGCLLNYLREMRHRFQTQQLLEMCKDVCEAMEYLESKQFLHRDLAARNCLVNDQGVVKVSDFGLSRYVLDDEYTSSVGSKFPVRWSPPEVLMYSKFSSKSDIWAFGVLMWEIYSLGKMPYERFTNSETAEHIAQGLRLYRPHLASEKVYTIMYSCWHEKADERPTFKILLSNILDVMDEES

SMILES: CC(C)N1Cc2cc(c(F)cc2F)OCCCNC(=O)c2cnn3ccc1nc23
IC50 [1]: 9.67 nM | IC50 [2]: 5000 nM | IC50 [3]: 0.2 nM

SMILES: CS(=N)(=O)c1ccc(-c2ccc(CNC(=O)Cn3c4c(c5ccccc53)CCn3nccc3-4)nc2)cc1 (centres undefined)
IC50 [3]: 0.5 to 1 nM

SMILES: CC(C)c1nnc(-c2cnn3ccc(N4CCCC4c4cc(F)ccc4F)nc23)s1 (centres undefined)
IC50 [5]: < 10 nM

SMILES: Nc1cc(NS(=O)(=O)c2cccc(C(F)(F)F)c2)cc(-c2ccc3c(-c4ccncc4)c[nH]c3n2)c1
IC50 [6]: > 1000 nM

SMILES: C[C@@H]1CCc2ncc(F)cc2[C@H]2CCCN2c2ccn3ncc(c3n2)C(=O)N1 [SELITRECTINIB]
IC50 [6]: > 1000 nM

SMILES: C[C@H](Nc1ncc(Cl)c(Nc2cc(C3CC3)[nH]n2)n1)c1ccc(F)cn1
IC50 [6]: 8 nM

SMILES: C[C@H](Oc1cc(-c2cnn(C3CCNCC3)c2)cnc1N)c1c(Cl)ccc(F)c1Cl
IC50 (IMR-32): 100 nM

SMILES: C[C@H](Nc1ncc(Br)c(Nc2cc(C3CC3)[nH]n2)n1)c1ccc(F)cn1
IC50 [6]: 5 nM

SMILES: N#Cc1cnn2ccc(N3C[C@@H](F)C[C@@H]3c3cc(F)ccc3F)nc12
IC50 [7]: < 10 nM

SMILES: O=C(Nc1cnn2ccc(N3CCC[C@@H]3c3cc(F)ccc3F)nc12)N1CC[C@H](O)C1.O=S(=O)(O)O [LAROTRECTINIB SULFATE]
bioavailability [9]: 32 to 37% | half-life [10]: 2.9 h | IC50 [6]: 2 to 20 nM | Cmax [11]: 788 ng/mL | Tmax [12]: 1 h | AUC [13]: 4351 ng·h/mL | CL/F [14]: 98 L/h | IC50 (KM12): 1.9 nM | Vd [15]: 48 L

SMILES: CN(C)CCCc1cc(C(=O)c2cccc(NC(=O)Nc3ccc(Cl)cc3Cl)c2)c2c(N)ncnn12
IC50 (NTRK1/NTRK2): < 1 nM

SMILES: CC(C)c1cc(C(=O)c2cccc(NC(=O)Nc3ccc(OCc4ccccc4)cc3)c2)c2c(N)ncnn12
IC50 (NTRK1/NTRK2): < 1 nM

SMILES: C[C@H](Nc1cc(Nc2cc(C3CC3)[nH]n2)c([N+](=O)[O-])cc1F)c1ccc(F)cc1
IC50 [6]: 426 nM

SMILES: CC(C)c1cc(C(=O)c2cccc(NC(=O)Nc3ccc4ccccc4c3)c2)c2c(N)ncnn12
IC50 (NTRK1/NTRK2): < 1 nM

SMILES: N#Cc1cc(F)cc([C@H]2C[C@H](F)CN2c2ccn3ncc(C#N)c3n2)c1
IC50 [7]: < 10 nM

SMILES: C[C@H](Nc1nccc(Nc2cc(C3CC3)[nH]n2)n1)c1ccc(F)cc1
IC50 [6]: 67 nM

Other lines, results leading:

IC50 [4]: < 100 nM
SMILES: COCCN1C[C@@H](NC(=O)Nc2cc3c(nc2-c2ccccc2)CCCC3)[C@H](c2ccccc2)C1

IC50 [3]: 0.89 nM
SMILES: CC(C)(O)c1ccc2nc(-c3ccccc3)c(NC(=O)c3cc(-c4ncccn4)c(C(F)(F)F)cc3F)n2c1

GI50 (K562): 51.4 nM | IC50 [2]: 4.42 nM | IC50 [8]: 3.81 nM | IC50 (KM12): 19 nM
SMILES: CCN1CCN(Cc2ccc(NC(=O)Nc3nc4ccc(Oc5ccnc(C(=O)NC)c5)cc4s3)cc2C(F)(F)F)CC1

IC50 [3]: 27 to 30 nM
SMILES: O=C(Nc1cccnc1-c1ccccc1)NC1c2ccccc2-c2ccccc21

IC50 [16]: 1.02 nM
SMILES: Nc1cc(CNC(=O)c2cc(NC(=O)c3cc(-c4cccc(F)n4)c(Cl)cc3Cl)n(-c3ccccc3)n2)ccn1

IC50 [4]: < 100 nM
SMILES: COCCN1C[C@@H](NC(=O)Nc2cc3cc(OC)c(OC)cc3nc2-c2ccccc2)[C@H](c2ccccc2)C1

IC50 [3]: 1.5 nM | IC50 [17]: 1.3 nM
SMILES: COCCN1C[C@@H](NC(=O)Nc2c(C)c(C(C)(C)C)nn2-c2ccccc2)[C@H](c2ccc(F)c(F)c2)C1

IC50 [3]: 30 to 35 nM
SMILES: O=C(Nc1c(-c2ccccc2)nc2sccn12)NC1c2ccccc2-c2ccccc21

IC50 [3]: 1.1 nM | IC50 [17]: 1.9 nM
SMILES: COCCN1C[C@@H](NC(=O)Nc2c(C)c(-c3ccnc(C)n3)nn2-c2ccccc2)[C@H](c2cccc(F)c2)C1

IC50 [18]: < 50 nM
SMILES: O=C(c1cnc2ccc(N3CCCC3c3cc(F)ccc3F)cn12)N1CC(O)C1 (centres undefined)

IC50 [3]: 1 nM
SMILES: Cn1ccc(-c2cc(C(=O)Nc3c(-c4ccccc4)nc4ccc(CO)cn34)ccc2C(F)(F)F)n1

IC50 [16]: 1.04 nM
SMILES: Nc1cc(CNC(=O)c2cc(NC(=O)c3cc(-c4cccc(F)n4)c(F)cc3Cl)n(-c3ccccc3)n2)ccn1

IC50 [3]: 28 to 30 nM
SMILES: O=C(Nc1c(-c2ccccc2)nc2ccccn12)NC1c2ccccc2-c2ccccc21

Source: ChEMBL document CHEMBL4346723, “Targeting tropomyosin receptor kinase for cancer therapy” (Eur J Med Chem, 2019)
